Reference: US10463644B2, “Uses of sesquiterpene lactone compounds and their derivatives in drugs preparation” (ACCENDATECH, priority 2013, dated 2019)
Read-outs that look alike come from different tables or passages of the source.

How the values were obtained:
[1] = tested on: IL-1β secreted by synoviocyte; assay: Content of IL-1β in culture supernatant of synoviocyte of RA model rats given test compound; format: in vivo; conditions: rat RA model, dose 30 mg/kg.2d; normal control 0.16 ± 0.034, NaCl 0.49 ± 0.136
Procedure, shortened: (§1)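 Values reflect mediator secretion by synoviocytes taken from arthritic rats dosed at 30 mg/kg.2d. Normal and NaCl groups served as references.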

cancer stem cells = assay: Survival rate of cancer stem cells after test compound is added (flow cytometry, Annexin V-FITC/PI, clinical specimen); format: cell-based, patient; conditions: Homo sapiens, 18 h
Procedure, shortened: (§2)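 Ficoll-isolated mononuclear cells from patient specimens (e.g. AML) in serum-free IMDM at 1×10^6/mL were exposed to compound for 18 hours. Cells were stained for stem-cell markers (CD34+CD38+ for AML) plus Annexin V-FITC/PI, and apoptosis was read by flow cytometry within one hour.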

cancer cells = assay: Survival rate of cancer cells after test compound is added (flow cytometry, Annexin V-FITC/PI, clinical specimen); format: cell-based, patient; conditions: Homo sapiens, 18 h, read-out: Survival rate (%) All cells (Stem cells and ordinary cells)
Procedure, shortened: as §2

[2] = tested on: TNF-α secreted by synoviocyte; assay: Content of TNF-α in culture supernatant of synoviocyte of RA model rats given test compound; format: in vivo; conditions: rat RA model, dose 30 mg/kg.2d; normal control 0.38 ± 0.027, NaCl 0.74 ± 0.098
Procedure, shortened: as §1

[3] = tested on: PGE2 secreted by synoviocyte; assay: Content of PGE2 in culture supernatant of synoviocyte of RA model rats given test compound; format: in vivo; conditions: rat RA model, dose 30 mg/kg.2d; normal control 8.34 ± 1.29, NaCl 32.44 ± 10.32
Procedure, shortened: as §1

[4] = Head and neck squamous cell carcinomas

## C=C1C(=O)O[C@H]2[C@H]1CC[C@]1(C)O[C@@]13CC[C@@](C)(O)[C@H]23 [Compound 24]
[1]
  Content of IL-1β in culture supernatant of synoviocyte (x ± s): 0.37 ± 0.051 ng/mL
Cancer stem cells; AML
  viability at 10 µM: 48%
  viability at 20 µM: 39%
Cancer stem cells; Brain glioma
  viability at 10 µM: 52%
  viability at 20 µM: 42%
Cancer stem cells; Brain tumor
  viability at 10 µM: 66%
  viability at 20 µM: 54%
Cancer stem cells; Breast cancer
  viability at 10 µM: 54%
  viability at 20 µM: 47%
Cancer stem cells; CLL
  viability at 10 µM: 48%
  viability at 20 µM: 39%
Cancer stem cells; CML
  viability at 10 µM: 51%
  viability at 20 µM: 46%
Cancer stem cells; Children hepatoblastoma
  viability at 10 µM: 67%
  viability at 20 µM: 57%
Cancer stem cells; Colon adenocarcinoma
  viability at 10 µM: 58%
  viability at 20 µM: 49%
Cancer stem cells; Colorectal cancer
  viability at 10 µM: 66%
  viability at 20 µM: 55%
Cancer stem cells; Gastric cancer
  viability at 10 µM: 51%
  viability at 20 µM: 39%
Cancer stem cells; Gastrointestinal tumor
  viability at 10 µM: 56%
  viability at 20 µM: 51%
Cancer stem cells; Glioma
  viability at 10 µM: 69%
  viability at 20 µM: 60%
Cancer stem cells; [4]
  viability at 10 µM: 64%
  viability at 20 µM: 57%
Cancer stem cells; Laryngeal cancer
  viability at 10 µM: 65%
  viability at 20 µM: 55%
Cancer stem cells; Liver cancer
  viability at 10 µM: 74%
  viability at 20 µM: 61%
Cancer stem cells; Lung adenocarcinoma
  viability at 10 µM: 68%
  viability at 20 µM: 55%
Cancer stem cells; Lung cancer
  viability at 10 µM: 61%
  viability at 20 µM: 54%
Cancer stem cells; Malignant melanoma
  viability at 10 µM: 81%
  viability at 20 µM: 76%
Cancer stem cells; Nasopharynx cancer
  viability at 10 µM: 57%
  viability at 20 µM: 48%
Cancer stem cells; Ovarian cancer
  viability at 10 µM: 57%
  viability at 20 µM: 45%
Cancer stem cells; Pancreatic cancer
  viability at 10 µM: 55%
  viability at 20 µM: 49%
Cancer stem cells; Prostate cancer
  viability at 10 µM: 61%
  viability at 20 µM: 51%
Cancer stem cells; Retinoblastoma
  viability at 10 µM: 62%
  viability at 20 µM: 54%
Cancer stem cells; Skin cancer
  viability at 10 µM: 46%
  viability at 20 µM: 39%
Cancer cells; AML
  viability at 10 µM: 59%
  viability at 20 µM: 48%
Cancer cells; Brain glioma
  viability at 10 µM: 65%
  viability at 20 µM: 53%
Cancer cells; Brain tumor
  viability at 10 µM: 74%
  viability at 20 µM: 69%
Cancer cells; Breast cancer
  viability at 10 µM: 77%
  viability at 20 µM: 58%
Cancer cells; CLL
  viability at 10 µM: 67%
  viability at 20 µM: 48%
Cancer cells; CML
  viability at 10 µM: 69%
  viability at 20 µM: 51%
Cancer cells; Children hepatoblastoma
  viability at 10 µM: 75%
  viability at 20 µM: 68%
Cancer cells; Colon adenocarcinoma
  viability at 10 µM: 66%
  viability at 20 µM: 57%
Cancer cells; Colorectal cancer
  viability at 10 µM: 78%
  viability at 20 µM: 67%
Cancer cells; Gastric cancer
  viability at 10 µM: 66%
  viability at 20 µM: 48%
Cancer cells; Gastrointestinal tumor
  viability at 10 µM: 72%
  viability at 20 µM: 62%
Cancer cells; Glioma
  viability at 10 µM: 78%
  viability at 20 µM: 74%
Cancer cells; [4]
  viability at 10 µM: 76%
  viability at 20 µM: 68%
Cancer cells; Laryngeal cancer
  viability at 10 µM: 75%
  viability at 20 µM: 66%
Cancer cells; Liver cancer
  viability at 10 µM: 82%
  viability at 20 µM: 72%
Cancer cells; Lung adenocarcinoma
  viability at 10 µM: 78%
  viability at 20 µM: 64%
Cancer cells; Lung cancer
  viability at 10 µM: 72%
  viability at 20 µM: 66%
Cancer cells; Malignant melanoma
  viability at 10 µM: 88%
  viability at 20 µM: 86%
Cancer cells; Nasopharynx cancer
  viability at 10 µM: 64%
  viability at 20 µM: 59%
Cancer cells; Ovarian cancer
  viability at 10 µM: 68%
  viability at 20 µM: 61%
Cancer cells; Pancreatic cancer
  viability at 10 µM: 68%
  viability at 20 µM: 62%
Cancer cells; Prostate cancer
  viability at 10 µM: 75%
  viability at 20 µM: 62%
Cancer cells; Retinoblastoma
  viability at 10 µM: 82%
  viability at 20 µM: 69%
Cancer cells; Skin cancer
  viability at 10 µM: 62%
  viability at 20 µM: 47%
[2]
  Content of TNF-α in culture supernatant of synoviocyte (x ± s): 0.54 ± 0.057 ng/mL
[3]
  Content of PGE2 in culture supernatant of synoviocyte (x ± s): 23.63 ± 1.35 ng/mL
